Data on 88 compounds can be found in a melting point compilation (Tetko et al.; mined from patent text by program, amines drawn as free bases though some values may be those of a salt).

What is called melting point is the temperature, or range, at which the solid turns liquid.

Each structure is given as a SMILES string. Where only a bound is given, the exact number is not on record here.

The compound `CC(C)(C)c1cc(Cl)c2c(c1)C=NS(=O)(=O)O2` yielded a melting point of 127 to 130 °C.

Compound `CCOC(=O)C(NC(=O)CO)C(=O)OCC` displayed a melting point of 74 to 74.5 °C. Regarding `CC(=O)N(C(=O)N(C)C)c1snc(C(C)C)c1C#N`, the melting point fell in the range of 128 to 130 °C. Compound `O=C(NCCO)c1cccc(-c2ccc3c(c2)N(c2ccc(Cl)cc2Cl)CCCC3)c1` displayed a melting point of 172 to 173 °C. The compound `COc1ccc([C@@H]2C[C@H]2NC(=O)N(C)O)cc1OC` (relative stereo) returned a melting point of 142 to 144 °C. Compound `CCCCN1C(=O)C(=O)C(C)=C(C#N)C1=O` showed a melting point of 134 to 135 °C. `Cn1ncc(/C=C\C(=O)O)c1-c1ccc(F)cc1` came in with a melting point of 205 to 206 °C. Take `COc1c(/C=C/c2ccc(C#N)cc2)c(C)cc2c1C(C)(C)CCC2(C)C`: the melting point is 120 °C. The same measure for `CCOC(=O)CCc1cc(OCC(=O)NNC(C)=O)nn1Cc1ccc(Cl)cc1Cl`: 167 to 170 °C; for `NS(=O)(=O)c1ccc(-c2c(-c3ccccc3)[nH]c3ccccc23)cc1`: 223 to 225 °C.

For `CNC(=S)Nc1cc(C)ccc1N1CCOCC1`, the melting point was 107 °C.

Compound `CCc1c(-c2ccc(OCc3ccccc3)cc2)c2cc(C(=O)O)c3c(NC(C)=O)ccc1n23` came in with a melting point of 244 to 246 °C. The same measure for `CC(C)(C)CC(C)(C)c1cc(N=Nc2ccc(-c3ccccc3)cc2[N+](=O)[O-])c(O)c(C(C)(C)c2ccccc2)c1`: 176 to 179 °C; for `Cc1coc2c1C(=O)CC(c1cccs1)C2` (stereo not drawn): 81 to 82 °C. Turning to `Cn1nc(OC2=CC(CF)(CF)Oc3ccc(C(F)(F)C(F)(F)F)cc32)ccc1=O`, the melting point lay within 150 to 152 °C. In the case of `CC(C)CC(CP(=O)(O)CNC(=O)c1ccccc1)C(=O)N(c1ccc(-c2ccccc2)cc1)[C@@H](C)C(=O)O` (stereo partly drawn), the melting point lay within 148 to 150 °C. Then `CCOc1ccc(-c2cc(C(F)(F)F)n3ncc(-c4ccnc(C)c4)c3n2)cc1C(F)(F)F`, with 250 °C; and `CC(C)(CC(=O)Oc1ccccc1C(C)(C)C)NS(=O)(=O)C(F)(F)F`, with 69 to 71 °C. `c1ccc2c(c1)N(CC1CCCCC1)CC21COc2cc3c(cc21)OCO3` (stereo not drawn) registered a melting point of 153 to 154 °C. Then `CCOc1ccnc2c1c(C(C)=O)cn2S(=O)(=O)c1ccccc1`, with 151 to 153 °C; and `CC(C)N1N=C(c2ccc3c(c2)CCN(C2CCC2)CC3)CCC1=O`, with 140 to 141 °C. Take `COCOc1ccc(C(=O)OC)c(OCc2ccc(Cl)cc2Cl)c1C`: the melting point lay within 98.8 to 99 °C.

`CC(=O)OCC(C)(C)C(=O)N(O)Cc1ccccc1Cl` returned a melting point of 78 to 80 °C. Then `O=C(Nc1cccc(S(=O)(=O)N2CCOCC2)c1)c1cnn2c(C(F)F)cc(-c3ccc(Cl)cc3)nc12`, with 253 °C. Then `O=c1[nH]c2ccccc2cc1-c1csc(NS(=O)(=O)c2ccc(Cl)cc2)n1`, with greater than 300 °C. In the case of `COc1cccc(NCc2sccc2S(=O)(=O)Nc2onc(C)c2Br)c1`, the melting point fell in the range of 70 to 73 °C.

Regarding `Cc1ccc(NC(=O)N2CCc3cc(S(=O)(=O)N4CC(c5ccccc5)NC4=O)ccc32)cc1` (stereo not drawn), the melting point is 223 to 224 °C. The same measure for `COC(=O)c1ccc(OCc2ccccc2)c(OC2CCCC2)c1`: 58 to 59 °C; for `O=C1c2ccccc2C(=O)N1c1ccc(Cl)c2c1CC(CO)O2` (stereo not drawn): 181 to 183 °C. The same measure for `O=C1CN(c2cccc(CF)c2)NC(=O)N1`: 169 to 170 °C; for `CC(C)(C)CC(C)(C)c1ccc(C(=O)O)cc1`: 153 to 155 °C; for `CCOC(=O)c1ccc(NC(C)=O)cc1C(=O)OCC`: 118 to 121 °C. `Cc1ccc2cccc(OCc3c(Cl)ccc(S(=O)(=O)n4cccc4)c3Cl)c2n1` registered a melting point of 216 to 217 °C. For the compound `COc1ccc(CCC(=O)NNC(=O)c2ccc3[nH]ncc3c2)cc1C(F)(F)F`, the melting point is 224 to 225 °C. The same measure for `CCOC(=O)c1cccc(-c2ccc(Cl)c3cc(Cc4ccc(F)c(F)c4)sc23)c1`: 124 to 125 °C. The same measure for `CCOC(=O)C1=C(C)N2CCNC2=C(C(=O)OCC)C1c1cccc(C(=O)OCC)c1` (stereo not drawn): 149 °C; for `C=C(CO)COCCCCCCCCCCCCCCCC`: 34 °C; for `CC(C)(C)OC(=O)[C@@H]1CCC(=O)N1`: 91 to 92 °C. In the case of `Cc1c(C=O)nc(-c2ccc(C(F)(F)F)cc2)n1C`, the melting point came out at 144 °C. The same measure for `CC(=O)C(=Cc1cc(Cl)c(S(C)(=O)=O)c(Cl)c1)C(C)=O`: 134 to 136 °C; for `COc1ccc(/C=C/c2nc3cc(C(=O)O)ccc3[nH]2)cc1OC`: greater than 285 °C; for `COC(=O)c1cccc2c1Nc1c(I)cccc1C2`: 105 to 107 °C. `O=C(CCN1CCCCC1)Nc1ccc2[nH]c3ccc(NC(=O)CCN4CCCCC4)cc3c(=O)c2c1` had a melting point greater than 320 °C. The same measure for `CC(=O)N(O)C(C)c1cccc(Nc2ccccc2-c2nnc(N)o2)c1Cl` (stereo not drawn): 142 to 146 °C; for `Cc1nc2sccn2c(=O)c1CCN1CCC2Nc3ccccc3C2C1` (stereo not drawn): 152 °C. The same measure for `O=CC1=Cc2cc(OCc3ccc(C(F)(F)F)cc3)ccc2OC1`: 108 to 110 °C. `CCOC(=O)c1ccc2[nH]cc(CCNC(=O)OC(C)(C)C)c2c1` showed a melting point of 170 to 171 °C. As for `Cc1c(Sc2ccc(Cl)cc2)nn(-c2ccccc2)c(=O)c1C#N`, the melting point was 180 to 182 °C.

`Cc1cc(C=O)ccc1NC(=O)OC(C)(C)C` yielded a melting point of 109 to 111 °C. `CCn1cc(C(=O)O)c(=O)c2cc(F)c(N3CCC(C(C)N)C3)c(F)c21` (stereo not drawn) returned a melting point of 212 to 217 °C. `CCOC(=O)CS(=O)(=O)Nc1ccccc1CC(=O)OC`: the melting point lay within 86 to 88 °C. The same measure for `COc1ccc(N2CCOCC2)c2sc(-c3nc4c([nH]3)CCN(C(C)=O)CC4)nc12`: 195 to 197 °C; for `Cc1cc(NC(=O)c2cn(-c3ccccc3)c3ccccc3c2=O)no1`: 163 to 164 °C.

With `CC1(C)Oc2ccc(C#N)cc2C(OC(=O)C2CCCN2S(=O)(=O)c2ccc([N+](=O)[O-])cc2)C1Br` (stereo not drawn), the melting point lay in the range of 177 to 180 °C.

`O=C(NC1=NN(c2ccc(Cl)c(Cl)c2)CC1)c1ccc(Cl)cc1`: the melting point fell in the range of 177 to 178 °C. Then `COc1cc2c(cc1OC)CC(C#N)=C2`, with 140 to 141 °C; and `CCCN(CCC)[C@H]1Cc2c[nH]c3ccc(C(=O)NN)c(c23)C1`, with 137 to 138 °C; and `CC(=O)Nc1ccc(NC(=O)c2ccc3c(c2)NC(=O)C3(C)C)cc1`, with 294 to 295 °C.

The compound `CCCOCc1nc(C(C)(C)O)c(C(=O)OCCC)[nH]1` came in with a melting point of 72 to 73 °C.

`COP(=O)(CC(=O)[C@H](Cc1ccccc1)NC(=O)OC(C)(C)C)OC`: the melting point lay within 76 to 78 °C. Then `CCOC(=O)Cc1cccc(C(=O)c2ccc(Br)cc2)c1N`, with 107 to 109 °C; and `COc1cc(CI)ccc1C12CC3CC(CC(C3)C1)C2`, with 143 to 144 °C; and `NC(=O)Cc1cc(Oc2ccc3c(ccn3C(=O)Nc3ccc(N4CCS(=O)(=O)CC4)c(C(F)(F)F)c3)c2)ncn1`, with 284 to 285 °C.

As to `O=C(Nc1ccc2nc(CN3CCCCC3)ccc2c1)c1ccc(-c2ccc(F)cc2F)cc1`, the melting point was in the range of 181 to 182 °C.

Consider `Cc1cc(Cl)cc2[nH]c(=O)c(=O)[nH]c12`, for which the melting point was greater than 250 °C. The same measure for `Cc1ccc(-c2ccc3cc4c(cc3c2)C(C)(C)CCC4(C)C)cc1`: 91 to 92 °C; for `Cc1c(N2CCc3c(-c4ccccc4)cccc32)nc2ccc(F)cc2c1C(=O)O`: 157 to 159 °C; for `CCCc1cc(=O)oc2cc(OS(=O)(=O)c3ccc(C)cc3)c3c(c12)OC(C)(C)C=C3`: 150 to 151 °C. The same measure for `CCOC(=O)C1=C[C@@H](OC(CC)CC)[C@H](NC(C)=O)[C@@H](N=[N+]=[N-])C1`: 115 to 117 °C. The same measure for `Nc1cccc2c1=NC(=O)C=2c1ccccc1`: 226 to 230 °C. On to `CNC(=O)CNC(=O)c1cccc(-c2cccc3oc(Cc4cccc(C(F)(F)F)c4)cc23)c1`, for which the melting point fell in the range of 135 to 139 °C. The same measure for `CC(=O)ONC(=N)c1ccc(-c2ccc(-c3ccc(C(=N)NOC(C)=O)o3)o2)cc1`: 212 to 213 °C.

For the compound `[N-]=[N+]=NC1CCc2ccccc2N(c2ccccc2)C1=O` (stereo not drawn), the melting point was in the range of 141 to 143 °C. `COC1C(O)C(CO)OC1n1cc(C(F)(F)F)c(=O)[nH]c1=O` (stereo not drawn) displayed a melting point of 192 to 194 °C. Then `CC1CCC(C(=O)Nc2ccccc2)=C2NC=C(C(=O)O)C(=O)N21` (stereo not drawn), with 200 to 201 °C; and `COc1c(Cl)ccc(-c2nc(C(=O)OCc3ccc(Cl)cc3)c(Cl)c(N)c2F)c1F`, with 143 °C; and `N#Cc1ccccc1OCC1CN=C(N)O1` (stereo not drawn), with 146 °C. The compound `CN(C)CCNC(=O)N1CCC(Sc2ccc(Cl)cc2)C1` (stereo not drawn) gave a melting point of 97 to 98.5 °C. The compound `OC1CCCc2nc3ccccc3c(NCc3ccc(F)cc3)c21` (stereo not drawn) displayed a melting point of 170 °C. Then `CC#Cc1cc(N(C)C)nc(Nc2ccccc2)n1`, with 150 to 152 °C; and `CC(Br)c1ccc(-n2nccn2)cn1` (stereo not drawn), with 72 to 73 °C; and `CS(=O)(=O)c1ccc(-c2cc(C(CCCCCO[N+](=O)[O-])=NO)nn2C2CCCCC2)cc1`, with 111 to 113 °C.

On to `N#CN1CCN2c3ccccc3Cc3ccccc3C2C1` (stereo not drawn), for which the melting point lay in the range of 164 to 166 °C. The same measure for `COC1=C(OC)C(=O)C2=C(CC(CO)(CCCCCCCCO)C2)C1=O`: 59 to 61 °C; for `CCOC(=O)c1cnc2c(F)cc(I)cc2c1O`: 287 to 289 °C; for `N#CCCn1nc(-c2ccc(OCc3ccccc3)cc2)sc1=S`: 138 °C. Then `O=C(CNC(=O)c1ccc(/C=C/C(c2cc(Cl)c(Cl)c(Cl)c2)C(F)(F)F)cc1Cl)NCC(F)(F)F` (stereo not drawn), with 83 to 85 °C; and `N#CC(C(=O)c1ccc(C(F)(F)F)cc1S(=O)(=O)C1CCCCC1)C(=O)C1CC1` (stereo not drawn), with 60 to 62 °C.
